Consider 1 compound from PMC11189555, “Aryl amino acetamides prevent Plasmodium falciparum ring development via targeting the lipid-transfer protein PfSTART1” (Nature Communications, 2024).

The test system of this experiment is P. berghei sporozoites invading HC-04 human liver cells. Kind of experiment: In vitro liver invasion assay. Type of experiment: cell-based, Plasmodium berghei. The protocol: P. berghei ANKA constitutively expressing mCherry[82] was used for the in vitro liver stage invasion assay. Animals used for the generation of the sporozoites were 4- to 5-week-old male Swiss Webster mice and were purchased from the Monash Animal Services (Melbourne, Victoria, Australia) and housed at 22 to 25 °C on a 12 h light/dark cycle with 40-70% humidity at the School of Biosciences, The University of Melbourne, Australia. All animal experiments were in accordance with the Prevention of Cruelty to Animals Act 1986, the Prevention of Cruelty to Animals Regulations 2008, and National Health and Medical Research Council (2013) Australian code for the care and use of animals for scientific purposes. These experiments were reviewed and permitted by the Melbourne University Animal Ethics Committee (2015123).
Infections of naïve Swiss mice were carried out by intraperitoneal (IP) inoculation obtained from a donor mouse between the first and fourth passages from cryopreserved stock. Parasitemia was monitored by Giemsa smear and exflagellation quantified 3 days post-infection. A. stephensi mosquitoes were allowed to feed on anaesthetised mice once the exflagellation rate was assessed between about 12 to 15 exflagellation events per 1 × 10^4 RBCs. Salivary glands of infected mosquitoes (days 17 to 24 post-infection) were isolated by dissection and parasites placed into RPMI-1640 media.
This was performed essentially as described[83] with the minor variations outlined in the Supplementary Information. […]
In vitro liver invasion assays. This was performed essentially as described16 with the following variations. In vitro human liver HCO4 cells (ATCC) were seeded at 1 × 10^5 cells/mL, grown for 24 h and then infected for 2 h with 30,000 Pb ANKA mCherry […]
expressing sporozoites. Following fixation, an IFA with anti -CSP antibody (1:500) followed by anti-mouse Alexafluor 488 (1:1 ,000; Invitrogen, Carlsbad, CA, USA) labels uninvaded parasites. Fluorescence signal was assessed using an Olympus CKX41 epifluorescence microscope. […]
Gametogenesis was then triggered by the addition of 10 μL ookinete medium (gametocyte culture medium supplemented with 100 μM xanthurenic acid and 0.27 µg/mL Cy3-labelled anti-Pfs25 antibody) to each well at room temperature. Plates were then cooled on a metal block at 4°C for four min to ensure even cooling and then stabilised for a further 4 min at 28°C. At 20 min post-induction, male gametogenesis was recorded in each well by automated brightfield microscopy using a x4 objective lens and 1.5x magnifier (x6 effective magnification). Afterward, plates were incubated in the dark at room temperature for 24 h and then female gametogenesis recorded in each well by automated fluorescence microscopy (anti-Pfs25-positive cells). All experiments were performed in quadruplicate with DMSO and cabamiquine (DDD107498)17 as negative and positive controls respectively. All data was evaluated in comparison to the positive and negative controls to calculate percentage inhibition of male and female gametocytes, and dose response analysis and IC50 calculation performed using GraphPad Prism. […]
The pellet was subjected to five

The structures appear in SMILES notation. Where “and” joins values, the source holds several entries; their conditions need not be identical. Equal values may be shown once. Entries after “also recorded” stand apart in the source; their conditions may differ.

`CC(C)(Nc1ccc(Cl)c(S(=O)(=O)N2CCOCC2)c1)C(=O)Nc1ccc(F)c(Cl)c1` [W-991]: the “P. berghei sporozoite invasion” value (2 h incubation with HC-04 cells, p > 0.05) is “showed no defect in invasion; also recorded: had no impact”. For the same compound, the “Liver stage invasion assay: in” value (count of sporozoites inside cells, Replicate 1 and 2) is 58 and 121. Further, under “count of sporozoites outside cells, Replicate 1 and 2”, the “Liver stage invasion assay: out” value was 92 and 153. Besides, where the note is “in relative to in + out, Replicate 1 and 2”, the “Liver stage invasion assay: ratio” value is 38.6667 and 44.1606.
